Earlier results in patent US4713385A, “Alkoxy and dialkoxyalkyl esters of dihydrolysergic acid and related compounds useful as 5HT receptor antagonists” (Eli Lilly and Company, priority 1985, dated 1987).

Columns and labels:
[1] = target: vascular dopaminergic receptors
[2] = test system: 5HT2 receptors; conditions: effect mediated by 5HT2 receptors; in words
[3] = target: vascular histaminergic receptors
[4] = test system: 5HT2 receptors; conditions: Garbrecht compounds; in words
[5] = target: vascular alpha adrenergic receptors

CC(O)C(C)OC(=O)[C@@H]1C[C@@H]2c3cccc4c3c(cn4C(C)C)C[C@H]2N(C)C1 (stereo partly drawn) [LY53857, 1-isopropyl-6-methyl-8β-(1-methyl-2-hydroxy)propoxycarbonyl-5R-ergoline]
Kd ([1]; Cohen et al. J.P.E.T., 227, 327 (1983), read-out: Kdissoc (vascular dopaminergic receptors)): ~10 µM
affinity for vascular dopaminergic receptors ([1]; in words): minimal affinity
antagonism of vascular contraction to serotonin [2]: potent antagonist of vascular contraction to serotonin
Kd ([3]; Cohen et al. J.P.E.T., 227, 327 (1983), read-out: Kdissoc (vascular histaminergic receptors)): ~10 µM
affinity for vascular histaminergic receptors ([3]; in words): minimal affinity
peripheral serotonin antagonist activity against 5HT2 receptors [4]: most active peripheral serotonin antagonist
Kd ([5]; Cohen et al. J.P.E.T., 227, 327 (1983), read-out: Kdissoc (vascular alpha adrenergic receptors)): ~10 µM
affinity for vascular alpha adrenergic receptors ([5]; in words): minimal affinity
